Test results from patent US20250213531A1, “5-MEO-DTM FOR THE TREATMENT OF BIPOLAR DISORDER” (GH RESEARCH IRELAND LIMITED, priority 2022, published 2025).

Test system: patients with postpartum depression (PPD)
Test: Clinical trial of inhaled 5-MeO-DMT (IDR) in postpartum depression, one patient (6 mg then 12 mg)
Details: n=1
Description: The single-arm, open-label clinical trial will involve 15 adult female patients with clinically diagnosed postpartum depression (PPD).
The second dose (12 mg) will only be administered if: • a. […] The 6 mg dose was safe and well-tolerated according to the investigator, • c. Any psychoactive effects (PsE) of the prior dose have subsided, and • d. Pre-dose vital parameters and forced expiratory volume in one second (FEV1) are in normal range, or if outside of the normal range, are not clinically significant according to the investigator. • 3. Similarly, a third dose (18 mg) will only be administered if: • a. […] The 12 mg dose was safe and well-tolerated according to the investigator, and • c. Any PsE of the prior dose have subsided, and • d. Pre-dose vital parameters and forced expiratory volume in one second (FEV1) are in normal range, or if outside of the normal range, are not clinically significant according to the investigator.
The patients will be assessed for a peak psychedelic experience (based on a patient-scored visual analogue scale, the PE scale), sedation, and other endpoints after dosing. Follow-up visits are planned for Day 1, and Day 7 after the dosing day.

SMILES: COc1ccc2[nH]cc(CCN(C)C)c2c1 [5-MeO-DMT]
- standard criteria for MADRS response (at least 50% improvement) and MADRS remission (total score <=10): fulfilled
- tolerability of inhalation procedure: well tolerated with no inhalation-related adverse events
- adverse events (cramping left abdominal pain, headache) (Day 0): mild, short-lasting and resolved spontaneously
- ECG, safety laboratory analyses, CADSS (ECG 3 hours, laboratory 7 days, CADSS 3 hours, 1 day, 7 days): unremarkable
